According to the supplement of paper PMC10307832:

What was measured:
Experiment in all cases: relative viability (nuclei count vs DMSO), 5 days (fraction); higher = more cells survive
[1] = compound: O=c1[nH]cc(F)c(=O)[nH]1 [5-Fluorouracil] + O=C(CCCCCCC(=O)Nc1ccccc1)NO [Vorinostat] (partner 1 µM)
Summary of the method: (§1)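 Lung cancer cell lines, seeded in 1536-well plates, were treated the following day by pin tool with a single drug or with five library-drug doses (not always all listed) in √10 steps on top of a fixed anchor-drug dose. Cells were fixed and nuclei stained in one step after 5 days, and nuclei were counted. Relative viability is the nuclei count for treated wells divided by that for vehicle wells, reported as medians of duplicate plates.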

[2] = compound: CC1=C(CC(=O)O)c2cc(F)ccc2/C1=C\c1ccc([S+](C)[O-])cc1 [Sulindac] + Cc1nc(NC(=O)N2CCC[C@H]2C(N)=O)sc1-c1ccnc(C(C)(C)C(F)(F)F)c1 [Alpelisib] (partner 2 µM)
Summary of the method: as §1

[3] = compound: CC1=C(CC(=O)O)c2cc(F)ccc2/C1=C\c1ccc([S+](C)[O-])cc1 [Sulindac] + CC1(C)CCC(c2ccc(Cl)cc2)=C(CN2CCN(c3ccc(C(=O)NS(=O)(=O)c4ccc(N[C@H](CCN5CCOCC5)CSc5ccccc5)c(S(=O)(=O)C(F)(F)F)c4)cc3)CC2)C1 [Navitoclax] (partner 0.5 µM)
Summary of the method: as §1

[4] = compound: CN[C@@H]1C[C@H]2O[C@@](C)([C@@H]1OC)n1c3ccccc3c3c4c(c5c6ccccc6n2c5c31)C(=O)NC4 [Staurosporine] + Cc1cc(Nc2cc(N3CCN(C)CC3)nc(Sc3ccc(NC(=O)C4CC4)cc3)n2)n[nH]1 [Tozasertib] (partner 0.1 µM)
Summary of the method: as §1

Cell Line: UMC-11
- relative viability ([1]; first compound 0.02 µM): 0.374
- relative viability ([1]; first compound 0.2 µM): 0.325
- relative viability ([1]; first compound 0.6325 µM): 0.244
- relative viability ([2]; first compound 0.08 µM): 1.1
- relative viability ([2]; first compound 0.253 µM): 1.05
- relative viability ([2]; first compound 0.8 µM): 0.876
- relative viability ([2]; first compound 2.53 µM): 0.98
- relative viability ([2]; first compound 8 µM): 1.11
- relative viability ([3]; first compound 0.08 µM): 0.3
- relative viability ([3]; first compound 0.253 µM): 0.305
- relative viability ([3]; first compound 0.8 µM): 0.309
- relative viability ([3]; first compound 2.53 µM): 0.292
- relative viability ([3]; first compound 8 µM): 0.38
- relative viability ([4]; first compound 0.005 µM): 0.189
- relative viability ([4]; first compound 0.01581 µM): 0.161
- relative viability ([4]; first compound 0.05 µM): 0.145
- relative viability ([4]; first compound 0.1581 µM): 0.127
- relative viability ([4]; first compound 0.5 µM): 0.122
